Assays:
Format in all cases: in vivo
Phytophthora infestans = details: tomato young plants, protective spray, application rate 250 ppm, evaluation 3 days after inoculation; 0% = control, 100% = no infection
Plasmopara viticola = assay: Plasmopara test (grapevine)/protective; details: grapevine young plants, protective spray, application rate 250 ppm, evaluation 6 days after inoculation; 0% = control, 100% = no infection
Procedure: Plasmopara Test (Grapevine)/Protective [table] To produce an appropriate active ingredient formulation, 1 part by weight of active ingredient is mixed with the specified amounts of solvent and emulsifier, and the concentrate is diluted with water to the desired concentration. To test for protective activity, young plants are sprayed with the active ingredient formulation at the stated application rate. After the spray coating has dried on, the plants are inoculated with an aqueous spore suspension of Plasmopara viticola and then remain in an incubation cabin at approx. 20° C. and 100% relative air humidity for 1 day. Subsequently, the plants are placed in a greenhouse at approx. 21° C. and approx. 90% air humidity for 4 days. The plants are then moistened and placed in an incubation cabin for 1 day.

Venturia inaequalis = assay: Venturia test (apple)/protective; details: apple young plants, protective spray, application rate 250 ppm, evaluation 10 days after inoculation; 0% = control, 100% = no infection
Procedure: Venturia Test (Apple)/Protective [table] To produce an appropriate active ingredient formulation, 1 part by weight of active ingredient is mixed with the specified amounts of solvent and emulsifier, and the concentrate is diluted with water to the desired concentration. To test for protective activity, young plants are sprayed with the active ingredient formulation at the stated application rate. After the spray coating has dried on, the plants are inoculated with an aqueous conidia suspension of the apple scab pathogen Venturia inaequalis and then remain in an incubation cabin at approx. 20° C. and 100% relative air humidity for 1 day. The plants are then placed in a greenhouse at about 21° C. and a relative air humidity of approx. 90%.

Alternaria solani = assay: Alternaria test (tomato)/protective; details: tomato young plants, protective spray, application rate 250 ppm, evaluation 3 days after inoculation; 0% = control, 100% = no infection
Procedure: Alternaria Test (Tomato)/Protective [table] To produce an appropriate active ingredient formulation, 1 part by weight of active ingredient is mixed with the specified amounts of solvent and emulsifier, and the concentrate is diluted with water to the desired concentration. To test for protective activity, young plants are sprayed with the active ingredient formulation at the stated application rate. After the spray coating has dried on, the plants are inoculated with an aqueous spore suspension of Alternaria solani. The plants are then placed in an incubation cabin at approx. 20° C. and 100% relative air humidity.

SMILES	Efficacy (%) (Venturia inaequalis)	Efficacy (%) (Alternaria solani)	also measured
Cn1c(=O)c2sc3c(=O)n(C)c(=S)c3sc2c1=O [drawing 22]	–	–	Efficacy (%) (Phytophthora infestans): 72%
Cn1c(=O)c2sc3c(=O)n(C)c(=S)c3sc2c1=O [drawing 23]	–	–	Efficacy (%) (Plasmopara viticola): 83%
Cn1c(=O)c2sc3c(=O)n(C)c(=S)c3sc2c1=O [drawing 24]	99%	–	–
Cn1c(=O)c2sc3c(=S)n(C)c(=O)c3sc2c1=S [drawing 25]	71%	–	–
Cn1c(=O)c2sc3c(=O)n(C)c(=S)c3sc2c1=O [drawing 26]	–	95%	–
Cn1c(=O)c2sc3c(=S)n(C)c(=O)c3sc2c1=S [drawing 27]	–	76%	–
